In patent publication US9637483B2, “Heterocyclic compound” (TAKEDA PHARMACEUTICAL COMPANY LIMITED, priority 2013, dated 2017):

Tests used:
Assay type in all cases: biochemical
JAK1 = target: T1, JAK1 (Homo sapiens, UniProt P23458); assay: JAK1 enzyme inhibition test (LANCE method); details: 1 μM test compound; read-out: JAK1 enzyme inhibitory activity (%, 1 μM)
T1 construct: purchased Invitrogen
Method: (§1) JAK1 enzyme inhibitory activity of test compounds was measured by the LANCE method (PerkinElmer). First, a test compound diluted with assay buffer (50 mM HEPES (pH 7.5), 10 mM MgCl2, 1 mM EGTA, 2 mM DTT, 0.01% Tween20, 0.01% BSA) was added to a 384-well plate by 2 μL each. Then, a JAK1 (Invitrogen) solution and a fluorescence-labeled peptide substrate (ULight-JAK1, PerkinElmer) solution diluted with assay buffer to 187.5 ng/mL and 300 nM, respectively, were added by 2 μL each. Then, an enzyme reaction was started by adding 2 μL each of ATP solution prepared with assay buffer to 150 μM. After the reaction at room temperature for 1 hr, Detection Buffer (PerkinElmer) prepared to contain 20 mM EDTA, 4 nM europium-labeled anti-phosphotyrosine antibody (PerkinElmer) was added by 6 μL each. After standing at room temperature for 1 hr, fluorescence intensity (excitation wavelength 340 nm, fluorescence wavelength 665 nm, delay time 100 microseconds) was measured by a plate reader, Envision (PerkinElmer). The inhibitory activity of each compound was calculated as a relative activity value to the fluorescence intensity of a well free of enzyme as 100% inhibition.

JAK2 = target: T2, JAK2 (Homo sapiens, UniProt O60674); assay: JAK2 enzyme inhibition test (LANCE method); details: 1 μM test compound; read-out: JAK2 enzyme inhibitory activity (%, 1 μM)
T2 construct: purchased Invitrogen
Method: as §1, with “JAK2 enzyme” for “JAK1 enzyme”, “a JAK2” for “a JAK1”, “to 6” for “to 187.5”, “to 45” for “to 150”

JAK3 = target: T3, JAK3 (Homo sapiens, UniProt P52333); assay: JAK3 enzyme inhibition test (LANCE method); details: 1 μM test compound; read-out: JAK3 enzyme inhibitory activity (%, 1 μM)
T3 construct: purchased Invitrogen
T3 sequence (P52333 1-1124): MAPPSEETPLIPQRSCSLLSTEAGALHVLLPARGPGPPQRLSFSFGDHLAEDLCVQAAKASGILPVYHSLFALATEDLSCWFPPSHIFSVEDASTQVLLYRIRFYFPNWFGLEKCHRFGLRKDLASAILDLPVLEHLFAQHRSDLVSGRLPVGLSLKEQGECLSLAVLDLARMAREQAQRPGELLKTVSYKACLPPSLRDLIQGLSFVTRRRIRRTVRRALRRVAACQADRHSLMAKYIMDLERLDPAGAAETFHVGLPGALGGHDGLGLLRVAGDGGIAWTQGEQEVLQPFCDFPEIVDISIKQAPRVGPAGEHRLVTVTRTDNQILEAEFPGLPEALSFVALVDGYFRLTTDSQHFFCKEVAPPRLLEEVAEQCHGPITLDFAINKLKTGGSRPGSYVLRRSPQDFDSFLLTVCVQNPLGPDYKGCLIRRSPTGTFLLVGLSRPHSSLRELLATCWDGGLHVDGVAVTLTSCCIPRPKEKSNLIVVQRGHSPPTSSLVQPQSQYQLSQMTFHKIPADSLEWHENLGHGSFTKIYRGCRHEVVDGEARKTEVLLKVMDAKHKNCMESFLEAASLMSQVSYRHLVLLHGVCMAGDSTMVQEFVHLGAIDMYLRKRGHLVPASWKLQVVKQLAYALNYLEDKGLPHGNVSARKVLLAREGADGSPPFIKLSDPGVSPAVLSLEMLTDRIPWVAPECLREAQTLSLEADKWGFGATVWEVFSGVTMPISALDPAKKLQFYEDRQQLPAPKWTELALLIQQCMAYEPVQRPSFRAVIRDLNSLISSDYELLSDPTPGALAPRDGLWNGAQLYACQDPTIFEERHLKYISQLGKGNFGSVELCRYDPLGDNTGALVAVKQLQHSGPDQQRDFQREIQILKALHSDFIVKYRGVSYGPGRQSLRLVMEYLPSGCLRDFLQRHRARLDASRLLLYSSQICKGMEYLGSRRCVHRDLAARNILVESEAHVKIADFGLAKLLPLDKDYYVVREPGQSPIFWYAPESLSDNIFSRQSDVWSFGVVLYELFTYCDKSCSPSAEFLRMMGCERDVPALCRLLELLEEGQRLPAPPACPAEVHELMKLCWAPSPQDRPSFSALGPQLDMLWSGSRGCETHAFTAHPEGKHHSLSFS
Method: as §1, with “JAK3 enzyme” for “JAK1 enzyme”, “a JAK3” for “a JAK1”, “to 12” for “to 187.5”, “to 15” for “to 150”

TYK2 = target: T4, TYK2 (Homo sapiens, UniProt P29597); assay: TYK2 enzyme inhibition test (LANCE method); details: 1 μM test compound; read-out: TYK2 enzyme inhibitory activity (%, 1 μM)
T4 construct: purchased Invitrogen
Method: as §1, with “TYK2 enzyme” for “JAK1 enzyme”, “a TYK2” for “a JAK1”, “to 375” for “to 187.5”, “to 30” for “to 150”

T1 sequence (P23458 whole entry): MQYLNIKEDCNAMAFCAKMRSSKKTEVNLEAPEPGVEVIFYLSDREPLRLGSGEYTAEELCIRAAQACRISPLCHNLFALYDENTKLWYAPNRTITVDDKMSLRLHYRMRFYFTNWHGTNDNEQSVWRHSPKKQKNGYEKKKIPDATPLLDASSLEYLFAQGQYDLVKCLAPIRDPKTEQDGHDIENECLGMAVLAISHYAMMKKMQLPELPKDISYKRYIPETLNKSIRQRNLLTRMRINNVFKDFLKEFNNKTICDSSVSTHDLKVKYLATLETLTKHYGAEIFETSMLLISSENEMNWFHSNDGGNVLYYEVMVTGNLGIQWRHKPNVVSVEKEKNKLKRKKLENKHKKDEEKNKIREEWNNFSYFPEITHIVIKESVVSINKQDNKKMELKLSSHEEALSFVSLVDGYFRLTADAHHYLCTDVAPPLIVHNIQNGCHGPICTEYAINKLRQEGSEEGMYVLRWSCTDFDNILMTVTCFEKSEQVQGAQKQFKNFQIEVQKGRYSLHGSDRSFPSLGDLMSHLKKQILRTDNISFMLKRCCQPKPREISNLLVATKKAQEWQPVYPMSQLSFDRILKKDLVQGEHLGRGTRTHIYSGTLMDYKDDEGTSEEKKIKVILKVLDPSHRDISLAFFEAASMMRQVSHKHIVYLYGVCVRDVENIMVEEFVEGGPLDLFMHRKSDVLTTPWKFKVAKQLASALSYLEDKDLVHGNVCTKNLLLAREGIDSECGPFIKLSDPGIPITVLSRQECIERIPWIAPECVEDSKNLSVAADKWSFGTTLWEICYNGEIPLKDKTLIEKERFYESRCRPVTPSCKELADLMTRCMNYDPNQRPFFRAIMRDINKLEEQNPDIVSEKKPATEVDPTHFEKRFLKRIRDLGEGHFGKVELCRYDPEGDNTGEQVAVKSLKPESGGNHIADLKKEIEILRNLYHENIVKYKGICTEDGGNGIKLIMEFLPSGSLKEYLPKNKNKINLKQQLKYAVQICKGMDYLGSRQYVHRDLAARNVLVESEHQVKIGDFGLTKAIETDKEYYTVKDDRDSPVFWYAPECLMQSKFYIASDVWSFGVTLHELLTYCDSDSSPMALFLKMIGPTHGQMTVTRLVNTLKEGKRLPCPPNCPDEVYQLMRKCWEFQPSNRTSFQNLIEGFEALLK
T2 sequence (O60674 whole entry): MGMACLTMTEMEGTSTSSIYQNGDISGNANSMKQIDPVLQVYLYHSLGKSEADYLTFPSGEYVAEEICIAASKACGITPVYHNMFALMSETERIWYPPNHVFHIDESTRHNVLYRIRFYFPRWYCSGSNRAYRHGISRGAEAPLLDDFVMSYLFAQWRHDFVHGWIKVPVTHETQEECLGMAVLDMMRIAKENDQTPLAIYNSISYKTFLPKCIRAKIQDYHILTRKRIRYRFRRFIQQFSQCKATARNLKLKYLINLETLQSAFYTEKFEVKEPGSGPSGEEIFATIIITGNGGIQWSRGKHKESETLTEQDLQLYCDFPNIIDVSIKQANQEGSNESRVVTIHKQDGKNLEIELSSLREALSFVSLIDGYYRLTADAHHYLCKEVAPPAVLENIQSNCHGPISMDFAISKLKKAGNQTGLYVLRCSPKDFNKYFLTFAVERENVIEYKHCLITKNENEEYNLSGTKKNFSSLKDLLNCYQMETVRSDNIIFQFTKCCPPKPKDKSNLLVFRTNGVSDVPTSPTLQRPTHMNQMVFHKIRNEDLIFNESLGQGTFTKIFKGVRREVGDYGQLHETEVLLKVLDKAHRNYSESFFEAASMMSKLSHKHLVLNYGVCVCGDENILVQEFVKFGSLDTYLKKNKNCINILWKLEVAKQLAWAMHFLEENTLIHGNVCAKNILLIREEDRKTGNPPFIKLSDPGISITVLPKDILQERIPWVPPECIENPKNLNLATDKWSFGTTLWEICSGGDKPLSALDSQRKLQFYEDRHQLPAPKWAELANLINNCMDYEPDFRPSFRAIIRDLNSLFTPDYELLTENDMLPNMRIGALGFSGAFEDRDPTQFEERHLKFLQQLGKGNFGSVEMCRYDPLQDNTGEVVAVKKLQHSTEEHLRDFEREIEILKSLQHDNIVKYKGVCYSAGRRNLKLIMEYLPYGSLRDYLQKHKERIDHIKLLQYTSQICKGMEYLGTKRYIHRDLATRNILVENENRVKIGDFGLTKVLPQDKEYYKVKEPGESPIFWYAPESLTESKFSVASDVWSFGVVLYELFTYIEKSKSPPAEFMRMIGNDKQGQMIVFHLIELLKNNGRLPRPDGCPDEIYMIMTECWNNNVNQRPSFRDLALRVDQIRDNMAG
T4 sequence (P29597 whole entry): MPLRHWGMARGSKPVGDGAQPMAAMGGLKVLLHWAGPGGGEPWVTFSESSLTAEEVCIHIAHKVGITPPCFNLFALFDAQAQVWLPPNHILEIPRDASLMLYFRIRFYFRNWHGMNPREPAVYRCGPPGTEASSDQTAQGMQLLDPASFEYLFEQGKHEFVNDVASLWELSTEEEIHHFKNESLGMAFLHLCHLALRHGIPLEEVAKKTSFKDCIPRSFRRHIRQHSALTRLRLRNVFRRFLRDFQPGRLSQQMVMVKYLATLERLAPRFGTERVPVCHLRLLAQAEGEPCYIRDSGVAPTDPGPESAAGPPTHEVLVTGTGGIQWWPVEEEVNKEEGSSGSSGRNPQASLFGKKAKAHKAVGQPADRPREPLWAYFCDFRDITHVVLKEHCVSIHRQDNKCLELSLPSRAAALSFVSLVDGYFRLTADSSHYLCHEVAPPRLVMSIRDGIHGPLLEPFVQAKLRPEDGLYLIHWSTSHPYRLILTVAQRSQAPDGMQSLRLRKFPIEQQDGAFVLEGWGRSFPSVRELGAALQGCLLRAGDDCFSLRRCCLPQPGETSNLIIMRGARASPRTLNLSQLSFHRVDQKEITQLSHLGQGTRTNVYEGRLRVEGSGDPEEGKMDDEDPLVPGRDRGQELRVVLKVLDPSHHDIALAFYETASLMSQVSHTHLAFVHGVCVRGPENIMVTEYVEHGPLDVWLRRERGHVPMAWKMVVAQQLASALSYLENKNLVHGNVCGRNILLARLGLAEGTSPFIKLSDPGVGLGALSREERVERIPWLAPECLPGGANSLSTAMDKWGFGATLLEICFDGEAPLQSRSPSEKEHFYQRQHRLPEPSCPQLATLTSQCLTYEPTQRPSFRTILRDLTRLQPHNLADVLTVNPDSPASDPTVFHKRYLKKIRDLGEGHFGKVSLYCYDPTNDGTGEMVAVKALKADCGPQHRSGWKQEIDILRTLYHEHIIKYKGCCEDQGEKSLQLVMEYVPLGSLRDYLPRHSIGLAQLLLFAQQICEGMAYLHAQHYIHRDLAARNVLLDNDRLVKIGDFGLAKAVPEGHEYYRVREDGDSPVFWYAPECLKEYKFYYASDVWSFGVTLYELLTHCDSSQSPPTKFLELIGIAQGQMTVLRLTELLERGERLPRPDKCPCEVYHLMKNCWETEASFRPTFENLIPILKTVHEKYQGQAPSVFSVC

Structure (SMILES)	inhibition at 1 µM (JAK1)	inhibition at 1 µM (JAK2)	inhibition at 1 µM (JAK3)	inhibition at 1 µM (TYK2)
CC(C1CC1)n1cc(-c2cc(N3CCOCC3)n(C)n2)c2[nH]nc(N)c2c1=O (racemic) [Example 4, 3-amino-5-(1-cyclopropylethyl)-7-(1-methyl-5-(morpholin-4-yl)-1H-pyrazol-3-yl)-1,5-dihydro-4H-pyrazolo[4,3-c]pyridin-4-one]	99%	99%	100%	99%
Cn1nc(-c2cn(C3CCCC3(C)C)c(=O)c3c(N)n[nH]c23)cc1CN1CCS(=O)(=O)CC1 (racemic) [Example 72, 3-amino-5-(2,2-dimethylcyclopentyl)-7-(5-((1,1-dioxidothiomorpholin-4-yl)methyl)-1-methyl-1H-pyrazol-3-yl)-1,5-dihydro-4H-pyrazolo[4,3-c]pyridin-4-one]	99%	100%	100%	100%
Cn1nc(-c2cn(C3CCCC3(C)C)c(=O)c3c(N)n[nH]c23)cc1N1CCOCC1 (racemic) [Example 73, 3-amino-5-(2,2-dimethylcyclopentyl)-7-(1-methyl-5-(morpholin-4-yl)-1H-pyrazol-3-yl)-1,5-dihydro-4H-pyrazolo[4,3-c]pyridin-4-one]	99%	99%	100%	100%
CC(C)C(C#N)n1cc(-c2cc(N3CCOCC3)n(C)n2)c2[nH]nc(N)c2c1=O (racemic) [Example 112, 2-(3-amino-7-(1-methyl-5-(morpholin-4-yl)-1H-pyrazol-3-yl)-4-oxo-1,4-dihydro-5H-pyrazolo[4,3-c]pyridin-5-yl)-3-methylbutanenitrile]	98%	98%	99%	100%
CC1CCCCC1n1cc(-c2cc(C(C)(C)O)n(C)n2)c2[nH]nc(N)c2c1=O (racemic) [Example 116, 3-amino-7-(5-(2-hydroxypropan-2-yl)-1-methyl-1H-pyrazol-3-yl)-5-(2-methylcyclohexyl)-1,5-dihydro-4H-pyrazolo[4,3-c]pyridin-4-one]	101%	100%	101%	102%
CC1CCCCC1n1cc(-c2cc(N3CCOCC3)n(C)n2)c2[nH]nc(N)c2c1=O (racemic) [Example 146, 3-amino-5-(2-methylcyclohexyl)-7-(1-methyl-5-(morpholin-4-yl)-1H-pyrazol-3-yl)-1,5-dihydro-4H-pyrazolo[4,3-c]pyridin-4-one]	99%	99%	100%	100%
CC(C)[C@H](C)n1cc(-c2cc(C(C)(C)O)n(C)n2)c2[nH]nc(N)c2c1=O [Example 1, 3-amino-7-(5-(2-hydroxypropan-2-yl)-1-methyl-1H-pyrazol-3-yl)-5-((2S)-3-methylbutan-2-yl)-1,5-dihydro-4H-pyrazolo[4,3-c]pyridin-4-one]	97%	98%	100%	99%
CC(C)C(C)n1cc(-c2cc(C(C)(C)O)n(C)n2)c2[nH]nc(N)c2c1=O (centres unmarked) [Example 2, 3-amino-7-(5-(2-hydroxypropan-2-yl)-1-methyl-1H-pyrazol-3-yl)-5-(3-methylbutan-2-yl)-1,5-dihydro-4H-pyrazolo[4,3-c]pyridin-4-one]	97%	98%	99%	99%
CC(C)[C@H](C)n1cc(-c2cc(C(C)(C)CO)n(C)n2)c2[nH]nc(N)c2c1=O [Example 3, 3-amino-7-(5-(1-hydroxy-2-methylpropan-2-yl)-1-methyl-1H-pyrazol-3-yl)-5-((2S)-3-methylbutan-2-yl)-1,5-dihydro-4H-pyrazolo[4,3-c]pyridin-4-one]	98%	99%	100%	100%
C[C@@H](C1CC1)n1cc(-c2cc(N3CCOCC3)n(C)n2)c2[nH]nc(N)c2c1=O [Example 5, 3-amino-5-((1S)-1-cyclopropylethyl)-7-(1-methyl-5-(morpholin-4-yl)-1H-pyrazol-3-yl)-1,5-dihydro-4H-pyrazolo[4,3-c]pyridin-4-one]	99%	100%	100%	100%
C[C@H](C1CC1)n1cc(-c2cc(N3CCOCC3)n(C)n2)c2[nH]nc(N)c2c1=O [Example 6, 3-amino-5-((1R)-1-cyclopropylethyl)-7-(1-methyl-5-(morpholin-4-yl)-1H-pyrazol-3-yl)-1,5-dihydro-4H-pyrazolo[4,3-c]pyridin-4-one]	96%	93%	98%	100%
